Experiment: xn = mol fraction of the nth substance listed
Details: 101 kPa, Liquid

OCCO [1,2-ethanediol] + O
Details	mass density [kg/m3]	viscosity [mPa·s]
293.15 K, x1 = 0.0312	1011.7	1.337
293.15 K, x1 = 0.0676	1024.6	1.785
293.15 K, x1 = 0.1105	1037.2	2.272
293.15 K, x1 = 0.162	1051.3	2.951
293.15 K, x1 = 0.2248	1064.8	3.941
293.15 K, x1 = 0.3031	1076.7	5.102
293.15 K, x1 = 0.4036	1087.8	6.898
293.15 K, x1 = 0.537	1097.8	9.696
293.15 K, x1 = 0.723	1105.7	14.04
293.15 K, x1 = 1	1113.7	20.83
303.15 K, x1 = 0.0312	1006.1	1.047
303.15 K, x1 = 0.0676	1018.4	1.331
303.15 K, x1 = 0.1105	1030	1.694
303.15 K, x1 = 0.162	1043.4	2.2
303.15 K, x1 = 0.2248	1056.2	2.832
303.15 K, x1 = 0.3031	1067.5	3.728
303.15 K, x1 = 0.4036	1078	4.955
303.15 K, x1 = 0.537	1087	6.749
303.15 K, x1 = 0.723	–	9.399
303.15 K, x1 = 1	–	13.65
313.15 K, x1 = 0.0312	1001.3	0.835
313.15 K, x1 = 0.0676	1010.6	1.022
313.15 K, x1 = 0.1105	1021.9	1.319
313.15 K, x1 = 0.162	1034.7	1.677
313.15 K, x1 = 0.2248	1046.8	2.132
313.15 K, x1 = 0.3031	1057.9	2.756
313.15 K, x1 = 0.4036	1067.9	3.575
313.15 K, x1 = 0.537	1077.1	4.776
313.15 K, x1 = 0.723	1085.8	6.449
313.15 K, x1 = 1	1093.6	9.443
323.15 K, x1 = 0.0312	994.9	0.685
323.15 K, x1 = 0.0676	1005.1	0.868
323.15 K, x1 = 0.1105	1015.1	1.064
323.15 K, x1 = 0.162	1027.4	1.322
323.15 K, x1 = 0.2248	1038.6	1.657
323.15 K, x1 = 0.3031	1049.2	2.113
323.15 K, x1 = 0.4036	1059	2.709
323.15 K, x1 = 0.537	1068	3.593
323.15 K, x1 = 0.723	1076.7	4.837
323.15 K, x1 = 1	1084.7	6.992
333.15 K, x1 = 0.0312	989.8	0.576
333.15 K, x1 = 0.0676	997.9	0.713
333.15 K, x1 = 0.1105	1007.2	0.875
333.15 K, x1 = 0.162	1019.2	1.073
333.15 K, x1 = 0.2248	1030.3	1.312
333.15 K, x1 = 0.3031	1040.6	1.626
333.15 K, x1 = 0.4036	1050.3	2.053
333.15 K, x1 = 0.537	1059.2	2.684
333.15 K, x1 = 0.723	1068	3.51
333.15 K, x1 = 1	1076.4	5.06
343.15 K, x1 = 0.0312	983.7	0.498
343.15 K, x1 = 0.0676	991.5	0.597
343.15 K, x1 = 0.1105	1000.4	0.728
343.15 K, x1 = 0.162	1011.5	0.881
343.15 K, x1 = 0.2248	1022.3	1.071
343.15 K, x1 = 0.3031	1031.9	1.32
343.15 K, x1 = 0.4036	1041.3	1.648
343.15 K, x1 = 0.537	1050.1	2.136
343.15 K, x1 = 0.723	1058.8	2.817
343.15 K, x1 = 1	1067.5	3.987
353.15 K, x1 = 0.0312	977.1	0.434
353.15 K, x1 = 0.0676	984.7	0.525
353.15 K, x1 = 0.1105	993.6	0.629
353.15 K, x1 = 0.162	1003.8	0.758
353.15 K, x1 = 0.2248	1014	0.906
353.15 K, x1 = 0.3031	1023.7	1.1
353.15 K, x1 = 0.4036	1033	1.359
353.15 K, x1 = 0.537	1042	1.748
353.15 K, x1 = 0.723	1050.9	2.296
353.15 K, x1 = 1	1060	3.021
